According to patent US8952024B2, “Herbicidal pyrimidone derivatives” (E I du Pont de Nemours and Company, priority 2009, dated 2015):

Legend:
Assay type in all cases: in vivo
rice (Oryza sativa) = test: Test B flooded paddy test; conditions: for Plant response rating, Flood, Rice: 250 g ai/ha, flooded paddy test, visual rating on 0 to 100 scale (0 no effect, 100 complete control) after 13 to 15 days; for Plant response rating, Rice: Flood (flooded paddy test), 13 to 15 days; for Rice plant response rating: Flood, 31 g ai/ha, scale 0 to 100 (0 no effect, 100 complete control)
Procedure, shortened: (§1)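 Plants were grown to the 2-leaf stage, then pots were flooded to 3 cm above the soil and compounds were applied directly into the paddy water. That depth was held throughout. After 13 to 15 days in a greenhouse, injury was visually rated against controls on a 0–100 scale.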

[1] = test system: umbrella sedge (Cyperus difformis); test: Test B flooded paddy test; conditions: for Plant response rating, Flood, Sedge, Umbrella: 250 g ai/ha, flooded paddy test, visual rating on 0 to 100 scale (0 no effect, 100 complete control) after 13 to 15 days; for Plant response rating, Sedge, Umbrella: Flood (flooded paddy test), 13 to 15 days; for Sedge, Umbrella plant response rating: Flood, 31 g ai/ha, scale 0 to 100 (0 no effect, 100 complete control)
Procedure, shortened: as §1

[2] = test system: barnyardgrass (Echinochloa crus-galli); test: Test B flooded paddy test; conditions: for Plant response rating, Flood, Barnyardgrass: 250 g ai/ha, flooded paddy test, visual rating on 0 to 100 scale (0 no effect, 100 complete control) after 13 to 15 days; for Plant response rating, Barnyardgrass: Flood (flooded paddy test), 13 to 15 days; for Barnyardgrass plant response rating: Flood, 31 g ai/ha, scale 0 to 100 (0 no effect, 100 complete control)
Procedure, shortened: as §1

[3] = test system: ducksalad (Heteranthera limosa); test: Test B flooded paddy test; conditions: for Plant response rating, Flood, Ducksalad: 250 g ai/ha, flooded paddy test, visual rating on 0 to 100 scale (0 no effect, 100 complete control) after 13 to 15 days; for Plant response rating, Ducksalad: Flood (flooded paddy test), 13 to 15 days; for Ducksalad plant response rating: Flood, 31 g ai/ha, scale 0 to 100 (0 no effect, 100 complete control)
Procedure, shortened: as §1

[4] = test system: giant foxtail (Setaria faberii); test: Test A pre-/postemergence plant response; conditions: for Foxtail, Giant plant response rating: visual injury, 0 to 100 scale (0 no effect, 100 complete control), approx. ten days
Procedure, shortened: (§2)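 Approximately ten days after concurrent pre- and postemergence spraying in a greenhouse, plants were compared with untreated controls and rated visually for injury, 0 = no effect to 100 = complete control. Preemergence spray was directed onto loam/sand soil; postemergence targeted 1–2 leaf seedlings.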

[5] = test system: pigweed (Amaranthus retroflexus); test: Test A pre-/postemergence plant response; conditions: for Pigweed plant response rating: visual injury, 0 to 100 scale (0 no effect, 100 complete control), approx. ten days
Procedure, shortened: as §2

[6] = test system: large crabgrass (Digitaria sanguinalis); test: Test A pre-/postemergence plant response; conditions: for Crabgrass, Large plant response rating: visual injury, 0 to 100 scale (0 no effect, 100 complete control), approx. ten days
Procedure, shortened: as §2

[7] = test system: wheat (Triticum aestivum); test: Test A pre-/postemergence plant response; conditions: for Wheat plant response rating: visual injury, 0 to 100 scale (0 no effect, 100 complete control), approx. ten days
Procedure, shortened: as §2

[8] = test system: velvetleaf (Abutilon theophrasti); test: Test A pre-/postemergence plant response; conditions: for Velvetleaf plant response rating: visual injury, 0 to 100 scale (0 no effect, 100 complete control), approx. ten days
Procedure, shortened: as §2

corn (Zea mays) = test: Test A pre-/postemergence plant response; conditions: for Corn plant response rating: visual injury, 0 to 100 scale (0 no effect, 100 complete control), approx. ten days
Procedure, shortened: as §2

[9] = test system: morningglory (Ipomoea spp.); test: Test A pre-/postemergence plant response; conditions: for Morningglory plant response rating: visual injury, 0 to 100 scale (0 no effect, 100 complete control), approx. ten days
Procedure, shortened: as §2

[10] = test system: barnyardgrass (Echinochloa crus-galli); test: Test A pre-/postemergence plant response; conditions: for Barnyardgrass plant response rating: visual injury, 0 to 100 scale (0 no effect, 100 complete control), approx. ten days
Procedure, shortened: as §2

[11] = 62 g ai/ha, scale of 0 to 100 where 0 is no effect and 100 is complete control
[12] = 125 g ai/ha, scale 0 to 100, 0 is no effect, 100 is complete control
[13] = Postemergence, 125 g ai/ha, 0 to 100 scale where 0 is no effect and 100 is complete control
[14] = Preemergence, 125 g ai/ha, 0 to 100 scale, 0 = no effect, 100 = complete control
[15] = Preemergence, 500 g ai/ha, 0 to 100 scale, 0 = no effect, 100 = complete control

CCCn1c(-c2cccc(Cl)c2)ncc(C(=O)C2=C(O)CCCC2=O)c1=O [Compound 190]
Plant response rating, Flood, Rice (rice (Oryza sativa)): 15
Plant response rating, Rice (rice (Oryza sativa); [11]): 15
Plant response rating, Rice (rice (Oryza sativa); [12]): 15
Rice plant response rating (rice (Oryza sativa)): 15
Plant response rating, Flood, Sedge, Umbrella [1]: 95
Plant response rating, Sedge, Umbrella [1, 11]: 0
Plant response rating, Sedge, Umbrella [1, 12]: 30
Sedge, Umbrella plant response rating [1]: 0
Plant response rating, Flood, Barnyardgrass [2]: 30
Plant response rating, Barnyardgrass [2, 11]: 0
Plant response rating, Barnyardgrass [2, 12]: 20
Barnyardgrass plant response rating [2]: 0
Plant response rating, Flood, Ducksalad [3]: 100
Plant response rating, Ducksalad [3, 11]: 20
Plant response rating, Ducksalad [3, 12]: 40
Ducksalad plant response rating [3]: 20
Plant response rating, Foxtail, Giant [4, 13]: 80
Foxtail, Giant plant response rating ([4]; Postemergence, 500 g ai/ha): 90
Plant response rating, Foxtail, Giant [4, 14]: 60
Plant response rating, Foxtail, Giant [4, 15]: 90
Plant response rating, Pigweed [5, 13]: 100
Pigweed plant response rating ([5]; Postemergence, 500 g ai/ha): 100
Plant response rating, Pigweed [5, 14]: 70
Plant response rating, Pigweed [5, 15]: 100
Plant response rating, Crabgrass, Large [6, 13]: 90
Crabgrass, Large plant response rating ([6]; Postemergence, 500 g ai/ha): 90
Plant response rating, Crabgrass, Large [6, 14]: 60
Plant response rating, Crabgrass, Large [6, 15]: 90
Plant response rating, Wheat [7, 13]: 0
Wheat plant response rating ([7]; Postemergence, 500 g ai/ha): 0
Plant response rating, Wheat [7, 14]: 0
Plant response rating, Wheat [7, 15]: 0
Plant response rating, Velvetleaf [8, 13]: 100
Velvetleaf plant response rating ([8]; Postemergence, 500 g ai/ha): 100
Plant response rating, Velvetleaf [8, 14]: 70
Plant response rating, Velvetleaf [8, 15]: 100
Plant response rating, Corn (corn (Zea mays); [13]): 0
Corn plant response rating (corn (Zea mays); Postemergence, 500 g ai/ha): 0
Plant response rating, Corn (corn (Zea mays); [14]): 0
Plant response rating, Corn (corn (Zea mays); [15]): 0
Plant response rating, Morningglory [9, 13]: 100
Morningglory plant response rating ([9]; Postemergence, 500 g ai/ha): 100
Plant response rating, Morningglory [9, 15]: 70
Plant response rating, Barnyardgrass [10, 13]: 90
Barnyardgrass plant response rating ([10]; Postemergence, 500 g ai/ha): 100
Plant response rating, Barnyardgrass [10, 14]: 10
Plant response rating, Barnyardgrass [10, 15]: 100

Cc1cc(-n2c(-c3cccc(F)c3)ncc(C(=O)C3=C(O)CCCC3=O)c2=O)ccc1F [Compound 191]
Plant response rating, Flood, Rice (rice (Oryza sativa)): 0
Plant response rating, Rice (rice (Oryza sativa); [11]): 0
Plant response rating, Rice (rice (Oryza sativa); [12]): 0
Rice plant response rating (rice (Oryza sativa)): 0
Plant response rating, Flood, Sedge, Umbrella [1]: 85
Plant response rating, Sedge, Umbrella [1, 11]: 75
Plant response rating, Sedge, Umbrella [1, 12]: 80
Sedge, Umbrella plant response rating [1]: 60
Plant response rating, Flood, Barnyardgrass [2]: 25
Plant response rating, Barnyardgrass [2, 11]: 0
Plant response rating, Barnyardgrass [2, 12]: 0
Barnyardgrass plant response rating [2]: 0
Plant response rating, Flood, Ducksalad [3]: 100
Plant response rating, Ducksalad [3, 11]: 85
Plant response rating, Ducksalad [3, 12]: 75
Ducksalad plant response rating [3]: 65
Plant response rating, Foxtail, Giant [4, 13]: 80
Foxtail, Giant plant response rating ([4]; Postemergence, 500 g ai/ha): 100
Plant response rating, Foxtail, Giant [4, 14]: 40
Plant response rating, Foxtail, Giant [4, 15]: 90
Plant response rating, Pigweed [5, 13]: 80
Pigweed plant response rating ([5]; Postemergence, 500 g ai/ha): 90
Plant response rating, Pigweed [5, 14]: 80
Plant response rating, Pigweed [5, 15]: 100
Plant response rating, Crabgrass, Large [6, 13]: 70
Crabgrass, Large plant response rating ([6]; Postemergence, 500 g ai/ha): 100
Plant response rating, Crabgrass, Large [6, 14]: 50
Plant response rating, Crabgrass, Large [6, 15]: 100
Plant response rating, Wheat [7, 13]: 0
Wheat plant response rating ([7]; Postemergence, 500 g ai/ha): 50
Plant response rating, Wheat [7, 14]: 0
Plant response rating, Wheat [7, 15]: 20
Plant response rating, Velvetleaf [8, 13]: 100
Velvetleaf plant response rating ([8]; Postemergence, 500 g ai/ha): 100
Plant response rating, Velvetleaf [8, 14]: 60
Plant response rating, Velvetleaf [8, 15]: 100
Plant response rating, Corn (corn (Zea mays); [13]): 0
Corn plant response rating (corn (Zea mays); Postemergence, 500 g ai/ha): 50
Plant response rating, Corn (corn (Zea mays); [14]): 0
Plant response rating, Corn (corn (Zea mays); [15]): 30
Plant response rating, Morningglory [9, 13]: 90
Morningglory plant response rating ([9]; Postemergence, 500 g ai/ha): 100
Plant response rating, Morningglory [9, 14]: 0
Plant response rating, Morningglory [9, 15]: 70
Plant response rating, Barnyardgrass [10, 13]: 90
Barnyardgrass plant response rating ([10]; Postemergence, 500 g ai/ha): 100
Plant response rating, Barnyardgrass [10, 14]: 10
Plant response rating, Barnyardgrass [10, 15]: 80
